How the values were obtained:
Format in all cases: cell-based
[1] = test system: A549 (lung adenocarcinoma); assay: Antiproliferative activity (CCK-8 cell viability), A549; settings: Homo sapiens, 72 h; for inhibition at 3.3 µM: Compound concentration: 3.3 μM; for inhibition at 3.3 µM / inhibition at 10 µM: read-out: Antiproliferative activity in cancerous cells, A549 (inhibition of cell growth); for inhibition at 10 µM: Compound concentration: 10 μM; for inhibition at 30 µM: Compound concentration: 30 μM, read-out: Antiproliferative activity in cancerous cells, A549
Protocol: (§1) The antiproliferative activity of a compound was determined in the following cell lines: MDA-MB-231 (breast cancer), HepG2 (liver cancer), SW480 (colon cancer), B16F10 (malignant melanoma), A431 (epidermoid carcinoma), A549 (lung adenocarcinoma), and HeLa (cervical cancer). MDA-MB-231, HepG2, SW480, B16F10, and A431 cells were cultured in Dulbecco's modified Eagle's medium (DMEM) containing 10% fetal bovine serum (FBS). HeLa cells were cultured in MEM/EBSS (MEM) containing 10% FBS. A549 cells were maintained in Kaighn's modification of Ham's F-12 medium containing 10% FBS. A Cell Counting Kit-8 (CCK-8) was used to measure the cell viability of different cells following treatment with the compound.
(§2) Briefly cells were seeded in a 96-well plate at a density of 2,000-5,000 cells/well. Following attachment, the cells were treated with the compound in media at a compound concentration of 3.3 μM, 10 μM, or 30 μM. After the cells were incubated at 37° C. for 72 h, a CCK-8 solution (10 μL) was added to each well. After incubation at 37° C. for 4 h, the absorbance value of each well was determined using a multi-well plate reader at 450 nm. The wells treated with DMSO were taken as a vehicle control. Data were also obtained similarly for all the replicates and the percentage of cell viability was determined with respect to the DMSO-treated cells. The results are summarized in Tables 2-4, wherein A represents no less than […] of cell growth; B represents no less than 30% but less than 50% inhibition of cell growth; and C represents less than 30% inhibition of cell growth.

[2] = test system: MDA-MB-231 (breast cancer); assay: Antiproliferative activity (CCK-8 cell viability), MDA-MB-231; settings: Homo sapiens, 72 h; for inhibition at 3.3 µM: Compound concentration: 3.3 μM; for inhibition at 3.3 µM / inhibition at 10 µM: read-out: Antiproliferative activity in cancerous cells, MDA-MB-231 (inhibition of cell growth); for inhibition at 10 µM: Compound concentration: 10 μM
Protocol: as §1, §2

SW480 (colon cancer) = assay: Antiproliferative activity (CCK-8 cell viability), SW480; settings: Homo sapiens, 72 h; for inhibition at 3.3 µM: Compound concentration: 3.3 μM; for inhibition at 3.3 µM / inhibition at 10 µM: read-out: Antiproliferative activity in cancerous cells, SW480 (inhibition of cell growth); for inhibition at 10 µM: Compound concentration: 10 μM; for inhibition at 30 µM: Compound concentration: 30 μM, read-out: Antiproliferative activity in cancerous cells, SW480
Protocol: as §1, §2

HeLa (cervical cancer) = assay: Antiproliferative activity (CCK-8 cell viability), HeLa; settings: Homo sapiens, 72 h, read-out: Antiproliferative activity in cancerous cells, HELA (inhibition of cell growth); for inhibition at 3.3 µM: Compound concentration: 3.3 μM; for inhibition at 10 µM: Compound concentration: 10 μM
Protocol: as §1, §2

[3] = test system: A431 (epidermoid carcinoma); assay: Antiproliferative activity (CCK-8 cell viability), A431; settings: Homo sapiens, 72 h; for inhibition at 3.3 µM: A-431, Compound concentration: 3.3 μM; for inhibition at 3.3 µM / inhibition at 10 µM: read-out: Antiproliferative activity in cancerous cells, A431 (inhibition of cell growth); for inhibition at 10 µM: A-431, Compound concentration: 10 μM; for inhibition at 30 µM: A-431, Compound concentration: 30 μM, read-out: Antiproliferative activity in cancerous cells, A431
Protocol: as §1, §2

[4] = test system: B16F10 (malignant melanoma); assay: Antiproliferative activity (CCK-8 cell viability), B16F10; settings: Mus musculus, 72 h; for inhibition at 3.3 µM: B16-F10, Compound concentration: 3.3 μM; for inhibition at 3.3 µM / inhibition at 10 µM: read-out: Antiproliferative activity in cancerous cells, B16F10 (inhibition of cell growth); for inhibition at 10 µM: B16-F10, Compound concentration: 10 μM
Protocol: as §1, §2

HepG2 (liver cancer) = assay: Antiproliferative activity (CCK-8 cell viability), HepG2; settings: Homo sapiens, 72 h; for inhibition at 3.3 µM: Compound concentration: 3.3 μM; for inhibition at 3.3 µM / inhibition at 10 µM: read-out: Antiproliferative activity in cancerous cells, HepG2 (inhibition of cell growth); for inhibition at 10 µM: Compound concentration: 10 μM; for inhibition at 30 µM: Compound concentration: 30 μM, read-out: Antiproliferative activity in cancerous cells, HepG2
Protocol: as §1, §2

Structure (SMILES)	inhibition at 3.3 µM [1] [%]	inhibition at 10 µM [1] [%]	inhibition at 3.3 µM [2] [%]	inhibition at 10 µM [2] [%]	inhibition at 3.3 µM (SW480 (colon cancer)) [%]	inhibition at 10 µM (SW480 (colon cancer)) [%]	inhibition at 3.3 µM (HeLa (cervical cancer)) [%]	inhibition at 10 µM (HeLa (cervical cancer)) [%]	inhibition at 3.3 µM [3] [%]	inhibition at 10 µM [3] [%]	inhibition at 3.3 µM [4] [%]	inhibition at 10 µM [4] [%]	inhibition at 3.3 µM (HepG2 (liver cancer)) [%]	inhibition at 10 µM (HepG2 (liver cancer)) [%]	inhibition at 30 µM [1] [%]	inhibition at 30 µM ([2]; Compound concentration: 30 μM, read-out: Antiproliferative activity in cancerous cells, MDA-MB-231) [%]	inhibition at 30 µM (SW480 (colon cancer)) [%]	inhibition at 30 µM ([4]; B16-F10, Compound concentration: 30 μM, read-out: Antiproliferative activity in cancerous cells, B16F10) [%]	inhibition at 30 µM (HepG2 (liver cancer)) [%]	inhibition at 30 µM [3] [%]
COc1ccc(S(=O)(=O)Cc2ccc(/C=C3/C(C)=C(CC(=O)O)c4cc(F)ccc43)cc2)cc1 [B46, (Z)-2-(5-Fluoro-1-(4-(((4-methoxyphenyl)sulfonyl)methyl)benzylidene)-2-methyl-1H-inden-3-yl)acetic acid]	< 30	< 30	< 30	30 to 50	30 to 50	30 to 50	< 30	≥ 50	30 to 50	≥ 50	< 30	≥ 50	30 to 50	30 to 50						
CC1=C(CC(=O)O)c2cc(F)ccc2/C1=C\c1ccc(CCOC2CCCCO2)cc1 (stereo not drawn) [B47, (Z)-2-(5-Fluoro-2-methyl-1-(4-(2-((tetrahydro-2H-pyran-2-yl)oxy)ethyl)-benzylidene)-1H-inden-3-yl)acetic acid]	< 30	≥ 50	≥ 50	≥ 50	< 30	≥ 50	≥ 50	≥ 50	30 to 50	30 to 50	≥ 50	≥ 50	30 to 50	≥ 50						
CCc1ccc2c(c1)/C(=C\c1ccc(COc3ccccc3)cc1)C(C)=C2CC(=O)O [B48, (Z)-2-(6-Ethyl-2-methyl-1-(4-(phenoxymethyl)benzylidene)-1H-inden-3-yl)acetic acid]	< 30	30 to 50	< 30	< 30	< 30	< 30	30 to 50	≥ 50	≥ 50	≥ 50	30 to 50	30 to 50	< 30	< 30	30 to 50	< 30	< 30	30 to 50	< 30	
CC1=C(CC(=O)O)c2cc(F)ccc2/C1=C\c1cccc(CSc2ccc(F)cc2)c1 [B49, (Z)-2-(5-Fluoro-1-(3-(((4-fluorophenyl)thio)methyl)benzylidene)-2-methyl-1H-inden-3-yl)acetic acid]	< 30	30 to 50	≥ 50	≥ 50	< 30	≥ 50	< 30	≥ 50	< 30	30 to 50	≥ 50	≥ 50	< 30	≥ 50						
CC1=C(CC(=O)O)c2cc(F)ccc2/C1=C\c1cccc(C[S+]([O-])c2ccc(F)cc2)c1 (stereo not drawn) [B50, (Z)-2-(5-Fluoro-1-(3-(((4-fluorophenyl)sulfinyl)methyl)benzylidene)-2-methyl-1H-inden-3-yl)acetic acid]	< 30	< 30	30 to 50	≥ 50	< 30	30 to 50	< 30	30 to 50	< 30	< 30	≥ 50	≥ 50	< 30	< 30						30 to 50
CC1=C(CC(=O)O)c2cc(F)ccc2/C1=C\c1cccc(CS(=O)(=O)c2ccc(F)cc2)c1 [B51, (Z)-2-(5-Fluoro-1-(3-(((4-fluorophenyl)sulfonyl)methyl)benzylidene)-2-methyl-1H-inden-3-yl)acetic acid]	< 30	30 to 50	30 to 50	≥ 50	< 30	30 to 50	30 to 50	≥ 50	30 to 50	30 to 50	< 30	≥ 50	< 30	< 30						
CCc1ccc2c(c1)C(CC(=O)O)=C(C)/C2=C/c1ccc(COc2ccc(F)cc2)cc1 [B52, (Z)-2-(5-Ethyl-1-(4-((4-fluorophenoxy)methyl)benzylidene)-2-methyl-1H-inden-3-yl)acetic acid]	30 to 50	≥ 50	≥ 50	≥ 50	30 to 50	≥ 50	30 to 50	≥ 50	30 to 50	≥ 50	≥ 50	≥ 50	< 30	≥ 50						
CC1=C(CC(=O)O)c2cc(F)c(F)cc2/C1=C\c1ccc(COc2ccc(F)cc2)cc1 [B53, (Z)-2-(5,6-Difluoro-1-(4-((4-fluorophenoxy)methyl)benzylidene)-2-methyl-1H-inden-3-yl)acetic acid]	< 30	30 to 50	≥ 50	≥ 50	30 to 50	30 to 50	< 30	< 30	30 to 50	30 to 50	30 to 50	≥ 50	< 30	< 30			30 to 50			30 to 50
COc1ccc2c(c1)C(CC(=O)O)=C(C)/C2=C/c1ccc(COc2ccc(F)cc2)cc1 [B54, (Z)-2-(1-(4-((4-Fluorophenoxy)methyl)benzylidene)-5-methoxy-2-methyl-1H-inden-3-yl)acetic acid]	< 30	30 to 50	30 to 50	≥ 50	< 30	< 30	≥ 50	≥ 50	30 to 50	30 to 50	≥ 50	≥ 50	< 30	< 30	30 to 50		< 30		30 to 50	30 to 50

Source: patent US20260184663A1, “INDENE COMPOUNDS, PHARMACEUTICAL COMPOSITIONS THEREOF, AND THEIR THERAPEUTIC APPLICATIONS” (NucMito Pharmaceuticals co. Ltd., priority 2022, published 2026)
